# Reference: patent US20230111504A1, “COR[…] AND AVERMECTINS” (Huvepharma EOOD, priority 2020, published 2023)
# Read-outs that look alike come from different tables or passages of the source.
# How the values were obtained:
# [1] = test system: SARS-CoV-2; test: COVID-19 clinical trial: viral clearance in upper respiratory tract swab samples (RT-PCR); format: in vivo, human
# Experimental: (§1) Inclusion Criteria • 1. Male or female patients at least 18 years and up to 75 years old • 2. Signed informed consent • 3. Admitted to hospital for treatment of COVID-19. • 4. Patient within 7 days from symptom onset and within 72 hours after laboratory diagnosis (SARS-CoV-2 RT-PCR) • 5. Mild to Moderate COVID-19 disease defined as clinical status category up to 3 on the WHO 9-point ordinal scale, and/or NEWS2 score of 0 to 4 inclusive. • Hospitalized, no oxygen treatment • 6. Presence of at least 1 symptom characteristic for COVID-19 disease, e.g. fever, cough, sore throat, myalgia, fatigue, GI disorders, skin lesions, anosmia, ageusia, headache, etc • 7. In women of childbearing potential, negative pregnancy test and commitment to use contraceptive method throughout the study.
# (§2) Patients are screened for 24-36 hours. […] It is encouraged to screen potential participants immediately at the day of hospitalization (including informed consent, assessment of inclusion/exclusion criteria, screening laboratory tests all done by the local central lab, assessment of clinical symptoms criteria) and randomize patients on the same day (thus, Screening period and Day 1 will coincide). To assess eligibility criteria, central local laboratory values obtained within 24-36 hours of randomization will be used, except for pre-study testing of positive status of COVID-19 infection where a 72-hours window.
# Primary endpoint based on which the primary study objective will be assessed is proportion of patients who have shown negative SARS-CoV-2 PCR test on Day 7.
# (§3) Day 1 is defined as the day of the first IMP/placebo administration.
# Viral Clearance in Upper Respiratory Tract Swab Samples (Qualitative)—Remission
# Upper respiratory tract swab samples will be collected on Days 3, 4, 5, 6, 7, 9, 12 and 14 or until two negative results are obtained. Between Day 15 and Day 28 RT-PCR shall be done upon the discretion of the Investigator until 2 consecutive negative tests.
# No further RT-PCR tests will be done after 2 consecutive negative tests are obtained at any time point of the study. Swab samples should be obtained from the nasopharynx and oropharynx with two different swabs and combined in one tube, containing universal transport media. Samples are collected preferably in the mornings of each study day. Full instructions for collection, preparation, labelling, storage and shipment of samples are provided in the Laboratory Manual.
# [2] = test system: COVID-19; test: COVID-19 clinical trial: clinical improvement on WHO 9-category ordinal scale; format: in vivo, human
# Experimental: as §1, §2
# The secondary endpoints, related to the secondary study objectives are the following: • a. Number of patients achieving clinical improvement on Day 7 • b. Number of patients achieving clinical improvement on Day 14 • c. Number of patients achieving clinical recovery on Day 7 • d. Number of patients achieving clinical recovery on Day 14
# as §3
# The clinical disease severity during the study will be assessed based on the WHO Ordinal Scale for Clinical Status (Table 2). The WHO scale is a 9-category ordinal scale and was developed to have a standardized measure of the COVID-19 disease severity. The scale comprises patient status (outpatient or hospitalized), virus status (infected yes or no), limitation of activities, oxygen support, and organ support.
# The same picture was observed on Day 5, with difference 18% (p=0.03 . . . ), regarding the endpoint Clinical improvement. This endpoint was measured using WHO 9-category ordinal scale, developed to have a standardized measure of the COVID-19 disease severity. Clinical improvement is defined as a decrease on WHO ordinal scale score by at least one point. For our statistical calculations from data obtained from the clinical trials we used the method described above i.e. O'Brien-Fleming method for normally distributed data.
# [3] = test system: COVID-19; test: COVID-19 clinical trial: time to hospital discharge; format: in vivo, human; conditions: p=0.2755
# Experimental: as §1
# as §2, with “window. […]” for “window.”
# [4] = test system: C reactive protein; test: COVID-19 clinical trial: predictive marker C reactive protein; format: in vivo, human; conditions: Day 14
# [5] = test system: D-dimer; test: COVID-19 clinical trial: predictive marker D-dimer; format: in vivo, human
# [6] = acute oral, mice; cited from earlier work
# [7] = acute oral, rats; relative to 200 μg/kg in mice; cited from earlier work
# [8] = rhesus monkeys, cited from earlier work
# [9] = dogs; cited from earlier work
# [10] = variety of species; cited from earlier work
# [11] = repeated dose, 2 weeks, rhesus monkeys; cited from earlier work
# [12] = fourteen-week study, rats; cited from earlier work
# [13] = fourteen-week study, dogs; cited from earlier work
# [14] = various species; cited from earlier work
# [15] = mice; cited from earlier work
# [16] = rats; cited from earlier work
# [17] = rabbits; cited from earlier work
# [18] = test system: mouse lymphoma; conditions: cited from earlier work
# [19] = test system: human fibroblast cell culture; conditions: cited from earlier work
# [20] = cited from earlier work; for mean peak plasma concentration of the major component (H2B1a): single 12-mg dose (mean 165 mcg/kg)
# [21] = people treated with ivermectin; cited from earlier work
substance,measurement,setting,value
ivermectin,effect on viral clearance,"[1]; Day 4, immediately after treatment, 2 consecutive negative PCR tests",beneficial effect on the viral clearance
same,patients with negative PCR test results (2 consecutive negative tests),"[1]; Day 4, 400 μg/kg/day peroral Days 1-3 plus SoC, placebo arm 42%",52%
same,"Day of second negative PCR test, Mean","[1]; N=50, 400 μg/kg/day peroral Days 1-3 plus SoC",5.52
same,day by which the effect appears,[1]; PCR test endpoint,< 7 days
same,"Day of second negative PCR test, Difference Reference minus Test","[1]; p-value 0.3407, statistically insignificant",0.54 days
same,Clinical improvement versus placebo arm,"[2]; Day 4, p=0.02..., decrease on WHO ordinal scale by at least one point",statistically significant difference
same,"Clinical improvement, difference versus placebo arm","[2]; Day 5, p=0.03...",18%
same,Clinical improvement by visit day,"[2]; FIG. 3, later difference statistically insignificant",better results at days 4 and 5
same,overall clinical benefit versus Placebo treatment arm,[2]; early days of infection (day 4 and day 5 after initial dose),definitely shows clinical benefit
same,"Time to hospital discharge, difference between arms",[3],no statistically significant difference
same,CRP mean value,[4],13.76 mg/L
same,CRP median value,[4],3.70 mg/L
same,D-dimer mean value,[5]; Day 3,395.8 ng/mL
same,D-dimer mean value,[5]; Day 14,561.69 ng/mL
same,dose producing tremors and ataxia,[6],200 µg/kg
same,dose producing tremors and ataxia,[7],slightly higher doses
same,minimum toxic dose,[8]; acute oral,"2,000 μg/kg"
same,"toxic effects (emesis, mydriasis, sedation) at high doses",[8]; doses up to 24 mg/kg (120-fold the clinical dose),only slight increases in the observed toxic effects
same,single oral dose with no significant lethality,[9],up to 10 mg/kg
same,tolerability of a 200 μg/kg dose,[10],generally well tolerated
same,dose with no adverse effects,[11],"up to 1,200 μg/kg/day"
same,dose with no adverse effects,[12],400 µg/kg/day
same,dose with no adverse effects,[13],500 µg/kg/day
same,breeding performance,[14],has not been adversely affected
same,oral dose causing cleft palates,[15],0.4 mg/kg/day
same,oral dose causing cleft palates,[16],10 mg/kg/day
same,dose causing cleft palates and clubbed feet,[17],3 mg/kg/day
same,mouse lymphoma mutation assay result,[18],negative
same,unscheduled DNA synthesis,[19],did not induce
same,mean peak plasma concentration of the major component (H2B1a),"[20]; first of two studies, fasting healthy volunteers, range 16.4-101.1",46.6 (±21.9) ng/mL
same,period of excretion in the feces,"[20]; ivermectin and/or metabolites, excreted almost exclusively in the feces",~12 days
same,plasma half-life,"[20]; man, oral administration",approximately 18 hours
same,plasma concentration versus dose,[20]; oral administration,approximately proportional to the dose
same,administered dose excreted in the urine,[20]; oral,less than 1%
same,mean peak plasma concentration of the major component (H2B1a),"[20]; second of two studies, fasting healthy volunteers, range 13.9-68.4",30.6 (±15.6) ng/mL
same,time of peak plasma concentration after dosing,"[20]; single 12-mg dose, fasting healthy volunteers",approximately 4 hours
same,common side effects,[21],"headache, dizziness, drowsiness, muscle pain, abdominal pain, nausea, vomiting or diarrhea, pruritus, fatigue, hypotension"
